Measured values taken from publication PMC11446937, “Bacteria from the Amycolatopsis genus associated with a toxic bird secrete protective secondary metabolites” (Nature Communications, 2024).

What was measured:
K. rhizophila DSM11926 = assay: Disc-diffusion antimicrobial assay, ecologically relevant indicator strains; type: cell-based, Kocuria rhizophila; conditions: Suppl. Table 16, pure compounds 10 mg/mL in DMSO, 5 µl per disc, control Cip 5 µg/mL (HCl), DMSO control 0, n=1
[1] = system: Mycobacterium vaccae 10670; assay: Disc-diffusion antimicrobial assay, clinically relevant indicator strains; conditions: Suppl. Table 17, 1 mg/mL in DMSO, 50 µl (50 µg) per disc, Cip 5 µg/mL (H2O/HCl), DMSO solvent control itself 11P, n=3
E. faecalis 1528 = assay: as above; conditions: Suppl. Table 17, 1 mg/mL in DMSO, 50 µl (50 µg) per disc, Cip 5 µg/mL (H2O/HCl), DMSO solvent control itself 12p, n=3
E. coli SG458 = assay: as above; conditions: Suppl. Table 17, 1 mg/mL in DMSO, 50 µl (50 µg) per disc, Cip 5 µg/mL (H2O/HCl), DMSO solvent control itself 12P, n=3
S. aureus 134/94 (MRSA) = assay: as above; conditions: Suppl. Table 17, 1 mg/mL in DMSO, 50 µl (50 µg) per disc, Cip 5 µg/mL (H2O/HCl), DMSO solvent control 0, n=3
SARS-CoV PLpro = conditions: 200 µM; fluorimetric, 10 min; mean ± standard deviation, n=3
DENV2 NS2B-NS3 = assay: Fluorimetric protease inhibition assay; type: biochemical; conditions: 200 µM, 10 min, mean ± standard deviation, n=3
ZIKV NS2B-NS3 = conditions: 200 µM
[2] = system: B. thuringiensis DSM104061; assay: Disc-diffusion antimicrobial assay, ecologically relevant indicator strains; type: cell-based, Bacillus thuringiensis; conditions: Suppl. Table 16, pure compounds 10 mg/mL in DMSO, 5 µl per disc, control Cip 5 µg/mL (HCl), DMSO control 0, n=1
SARS-CoV2 Mpro = conditions: 200 µM; fluorimetric, 10 min; mean ± standard deviation, n=3
S. aureus SG511 = assay: Disc-diffusion antimicrobial assay, clinically relevant indicator strains; conditions: Suppl. Table 17, 1 mg/mL in DMSO, 50 µl (50 µg) per disc, Cip 5 µg/mL (H2O/HCl), DMSO solvent control itself 11P, n=3
[3] = system: Sporobomyces salmonicolor 549; assay: as above; type: cell-based; conditions: Suppl. Table 17, 1 mg/mL in DMSO, 50 µl (50 µg) per disc, Amph B 10 µg/mL (DMSO/H2O), DMSO solvent control itself 13P, n=3
Method: (§1) Disc-diffusion antimicrobial activity assays against clinically relevant indicator strains.
(§2) Pure compounds (1 mg/mL in DMSO or 50% MeOH) were tested for their antimicrobial activity against a variety of bacterial and fungal indicator strains: B. subtilis 6633 (Bs), S. aureus SG511 (Sa1), E. coli SG458 (Ec), P. aeruginosa K799/61 (Pa), S. aureus 134/94 (MRSA) (Sa2), E. faecalis 1528 (VRSA) (Ef), Mycobacterium vaccae 10670 (Mv), Sporobomyces salmonicolor 549 (Ss), C. albicans C.A. (Ca), and Penicillium notatum JP36 (Pn). On each disc, 50 µl compound solution (50 µg) were applied. Antimicrobial activity was determined by measuring the inhibition zone surrounding the disc in mm (n=3).
(§3) Bs: B. subtilis 663, Sa1: S. aureus SG511, Ec: E. coli SG458, Pa: P. aeruginosa K799/61, Sa2: S. aureus 134/94 (MRSA), Ef: E. faecalis 1528 (VRSA), Mv: M. vaccae 10670, Ss: S. salmonicolor 549, Ca: C. albicans C.A., Pn: P. notatum JP36. P: colonies in the inhibition zone, p: single colonies in the inhibition zone. A: no to low inhibition, n.t.: not tested.
(§4) B. subtilis 663, Sa1: S. aureus SG511, Ec: E. coli SG458, Ca: C. albicans C.A., P: colonies in the inhibition zone, […]

Penicillium notatum JP36 = assay: as above; type: cell-based; conditions: Suppl. Table 17, 1 mg/mL in DMSO, 50 µl (50 µg) per disc, Amph B 10 µg/mL (DMSO/H2O), DMSO solvent control itself 12P, n=3
Method: as §1, §2, §3, §4

C. albicans C.A. = assay: as above; type: cell-based; conditions: Suppl. Table 17; disc diffusion; 1 mg/mL in DMSO, 50 µl (50 µg) per disc; Amph B 10 µg/mL (DMSO/H2O); DMSO solvent control 0; n=3
Method: as §1, §2, §3, §4

B. subtilis 6633 = assay: as above; conditions: Suppl. Table 17, 1 mg/mL in DMSO, 50 µl (50 µg) per disc, Cip 5 µg/mL (H2O/HCl), DMSO solvent control itself 12P, n=3
P. aeruginosa K799/61 = conditions: Suppl. Table 17; disc diffusion; 1 mg/mL in DMSO, 50 µl (50 µg) per disc; Cip 5 µg/mL (H2O/HCl); DMSO solvent control itself 12P; n=3
P. monteilii DSM1388 = assay: Disc-diffusion antimicrobial assay, ecologically relevant indicator strains; type: cell-based, Pseudomonas monteilii; conditions: Suppl. Table 16, pure compounds 10 mg/mL in DMSO, 5 µl per disc, control Cip 5 µg/mL (HCl), DMSO control 0, n=1
cruzain = assay: Fluorimetric protease inhibition assay; type: biochemical, Trypanosoma cruzi; conditions: 200 µM, 10 min, mean ± standard deviation, n=3
cathepsin B = assay: Fluorimetric protease inhibition assay; type: biochemical; conditions: 200 µM, 10 min, mean ± standard deviation, n=3
B. licheniformis DSM13 = assay: Disc-diffusion antimicrobial assay, ecologically relevant indicator strains; type: cell-based, Bacillus licheniformis; conditions: Suppl. Table 16, pure compounds 10 mg/mL in DMSO, 5 µl per disc, control Cip 5 µg/mL (HCl), DMSO control 0, n=1
sortase A (SrtA) = conditions: 200 µM
C. albicans SC5314 = assay: Disc-diffusion antimicrobial assay, ecologically relevant indicator strains; type: cell-based, Candida albicans; conditions: Suppl. Table 16, pure compounds 10 mg/mL in DMSO, 5 µl per disc, control Amph B 10 µg/mL (DMSO/H2O), DMSO control 0, n=1
urokinase (uPA) = assay: Fluorimetric protease inhibition assay; type: biochemical; conditions: 200 µM, 10 min, mean ± standard deviation, n=3
cathepsin L = assay: Fluorimetric protease inhibition assay; type: biochemical; conditions: 200 µM, 10 min, mean ± standard deviation, n=3
rhodesain = conditions: 200 µM
[4] = system: bacterial and fungal indicator strains; assay: Disc-diffusion antimicrobial activity, indicator strains overall; type: cell-based; conditions: disc-diffusion assays of isolated compounds against indicator strains incl. K. rhizophila and C. albicans
Method: For more experimental details, see Supplementary Methods and Supplementary Tables 16–18.
Droplet-collapsing test of lipopetides.
Pure compounds were dissolved in water (final concentration 10 mM). Then, 20 µl of the solutions were placed on a hydrophobic surface (parafilm ‘M’). Tensioactive properties were determined by the observation of collapsed […]
33,34 Tween-20 (10 mM) was used as tensioactive positive control. For better visualization, 0.0025% crystal violet was added to the droplet, having no effect on the […]
Supplementary Figure 88. Droplet-collapsing assay testing the tensioactive properties of lipopeptides (n=3). […]
epidermidis DSM103867, as well as the skin pathogenic yeast C. albicans SC5314. […] Antimicrobial activity was determined by measuring the inhibition zone surrounding the disc in mm. […]
as §2, with “On each disc, 50 µl compound solution (50 µg) were applied.” left out, “(n=3). […]” for “(n=3).”

| Compound | inhibition zone, Mv [1] | inhibition zone, Ef (E. faecalis 1528) | inhibition zone, Ec (E. coli SG458) | inhibition zone, Sa2 (S. aureus 134/94 (MRSA)) | inhibition zone, Sa1 (S. aureus SG511) | inhibition zone, Ss [3] | inhibition zone, Pn (Penicillium notatum JP36) | inhibition zone, Ca (C. albicans C.A.) | inhibition zone, Bs (B. subtilis 6633) | inhibition zone, Pa (P. aeruginosa K799/61) | antimicrobial activity (in words) [4] | further results |
| --- | --- | --- | --- | --- | --- | --- | --- | --- | --- | --- | --- | --- |
| Pachycephalamide F [Compound 6] | 13p | 13p | 13P | 0 mm | 0 mm | 23p | 13p | 0 mm | 0 mm | 18P | – | inhibition zone, Kr (K. rhizophila DSM11926): 10 mm; Protease inhibition rate, PLpro (SARS-CoV) (SARS-CoV PLpro): 0 ± 0%; Protease inhibition rate, DENV2 (DENV2 NS2B-NS3): 18.47 ± 1.66%; Protease inhibition rate, ZIKV (ZIKV NS2B-NS3): 22.62 ± 1.19; inhibition zone, Bt [2]: 0 mm; Protease inhibition rate, Mpro (SARS-CoV2) (SARS-CoV2 Mpro): 6.92 ± 5.97%; inhibition zone, Pm (P. monteilii DSM1388): 0 mm; Protease inhibition rate, Cruzain (cruzain): 60.52 ± 3.73%; Protease inhibition rate, Cathepsin B (cathepsin B): 57.57 ± 11.52%; inhibition zone, Bl (B. licheniformis DSM13): 0 mm; Protease inhibition rate, SrtA (sortase A (SrtA)): 20.39 ± 3.94; inhibition zone, Ca2 (C. albicans SC5314): 0 mm; Protease inhibition rate, uPA (urokinase (uPA)): 0 ± 0%; Protease inhibition rate, Cathepsin L (cathepsin L): 58.30 ± 6.91%; Protease inhibition rate, Rhodesain (rhodesain): 53.72 ± 0.31 |
| C[C@H]1CN2C(=O)/C=C/C=C/C=C/[C@@](C)(O)C(O[C@@H]3OC[C@@H](O)[C@H](O)[C@H]3N)\C=C/C=C/C=C/C=C\[C@@H]2[C@@H]1O (stereo partly shown) [Compound 8, ciromicin A, reference compound] | – | – | – | – | – | – | – | – | – | – | antifungal and antibacterial effects | – |
| Demiguisin [Compound 7] | 0 mm | 0 mm | 0 mm | 0 mm | 0 mm | 0 mm | 0 mm | 0 mm | 0 mm | 0 mm | no antimicrobial effects | – |
